Target: T1, hTAS1R1 A302W/rTAS1R3 (UniProt Q7RTX1+Q923K1, A302W)
T1 construct: UniProtKB number Q7RTX1–1); The cDNA coding region of rTAS1R3 was synthesized with optimized-codon usage for human expression; expressed in transfected cells; host or cells: HEK293T/17
T1 sequence (Q7RTX1 21-841 A302W): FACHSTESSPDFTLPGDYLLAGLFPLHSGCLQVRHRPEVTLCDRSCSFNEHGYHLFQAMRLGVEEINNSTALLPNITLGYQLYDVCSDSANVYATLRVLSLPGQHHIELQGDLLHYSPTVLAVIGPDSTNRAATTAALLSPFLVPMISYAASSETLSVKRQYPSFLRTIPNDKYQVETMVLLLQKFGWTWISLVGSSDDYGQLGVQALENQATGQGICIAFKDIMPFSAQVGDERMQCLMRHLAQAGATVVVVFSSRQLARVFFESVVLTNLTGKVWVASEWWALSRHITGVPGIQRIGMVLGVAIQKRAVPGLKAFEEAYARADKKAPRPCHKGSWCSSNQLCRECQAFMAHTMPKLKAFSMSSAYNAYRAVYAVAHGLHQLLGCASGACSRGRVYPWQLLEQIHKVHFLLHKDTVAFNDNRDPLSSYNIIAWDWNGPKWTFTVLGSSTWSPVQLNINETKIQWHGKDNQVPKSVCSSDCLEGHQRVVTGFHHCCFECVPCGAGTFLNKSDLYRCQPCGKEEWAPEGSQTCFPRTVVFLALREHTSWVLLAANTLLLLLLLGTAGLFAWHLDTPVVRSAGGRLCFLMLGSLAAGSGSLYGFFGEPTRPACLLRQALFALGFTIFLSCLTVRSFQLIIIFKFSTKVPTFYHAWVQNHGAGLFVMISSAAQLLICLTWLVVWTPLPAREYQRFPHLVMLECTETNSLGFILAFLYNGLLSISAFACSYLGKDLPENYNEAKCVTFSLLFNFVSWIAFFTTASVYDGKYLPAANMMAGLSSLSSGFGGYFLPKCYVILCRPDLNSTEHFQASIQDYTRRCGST
T1 sequence (Q923K1 21-858): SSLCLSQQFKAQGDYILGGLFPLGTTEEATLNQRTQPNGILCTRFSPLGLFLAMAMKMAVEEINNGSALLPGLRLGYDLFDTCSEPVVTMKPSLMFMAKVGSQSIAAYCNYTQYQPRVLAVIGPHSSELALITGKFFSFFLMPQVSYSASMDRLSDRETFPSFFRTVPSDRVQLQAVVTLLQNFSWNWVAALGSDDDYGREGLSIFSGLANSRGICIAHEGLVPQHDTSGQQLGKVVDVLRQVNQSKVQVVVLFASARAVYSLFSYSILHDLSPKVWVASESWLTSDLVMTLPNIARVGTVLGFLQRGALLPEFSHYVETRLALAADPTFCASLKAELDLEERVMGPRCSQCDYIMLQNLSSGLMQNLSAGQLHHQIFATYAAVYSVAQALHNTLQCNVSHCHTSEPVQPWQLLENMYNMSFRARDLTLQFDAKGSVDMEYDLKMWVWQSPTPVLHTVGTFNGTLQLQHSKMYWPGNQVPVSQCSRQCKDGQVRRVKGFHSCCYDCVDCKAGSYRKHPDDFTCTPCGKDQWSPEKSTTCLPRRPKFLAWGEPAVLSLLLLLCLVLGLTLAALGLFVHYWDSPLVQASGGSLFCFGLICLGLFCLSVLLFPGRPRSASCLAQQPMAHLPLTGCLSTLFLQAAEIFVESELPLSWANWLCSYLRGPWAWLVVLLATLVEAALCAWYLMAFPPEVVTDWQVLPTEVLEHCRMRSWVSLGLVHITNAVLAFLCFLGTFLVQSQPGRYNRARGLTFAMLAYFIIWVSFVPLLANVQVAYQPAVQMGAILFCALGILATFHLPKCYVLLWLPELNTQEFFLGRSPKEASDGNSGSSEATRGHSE
Experiment: Calcium assay, hTAS1R1 mutant co-expressed with rTAS1R3
Type: cell-based, human, rat
Excerpt: Chimeric Gα proteins, such as Gα16Gust44, Gα16Gi3 or Gα15i2, are widely used in the functional expression of TAS1R receptors ([Backes et al., 2015]; [Suess et al., 2015]; [Toda et al., 2021], [Toda et al., 2013], [Toda et al., 2018]; [Zhang et al., 2008]). Chimeric Gα15i2 (([Toda et al., 2013]), Supplementary data) was generated by replacing the last five residues of the C-terminal tail of rat Gα15i2 (EINLL) (UniProt number G3V6N8; https://www.uniprot.org/uniprot/) with the counterpart sequence from human GNAI2 (DCGLF) (UniProt number P04899-1) and cloning into the pcDNA3.1/Hygro vector (Invitrogen, Thermo Fisher Scientific, Illkirch, France) between the HindIII and NotI restriction sites, resulting in the plasmid pcDNA3.1-Gα15i2. Chimeric Gα16Gust44 construct have already been reported ([Raliou et al., 2011]). Briefly, Gα16Gust44 was generated by replacing the C-terminal of Gα16 with the C-terminal 44 residues of gustducin. As previously described, hTAS1R1 was amplified from human fungiform papillae cDNA and cloned and inserted into pcDNA3 (Invitrogen), generating pcDNA3-TAS1R1-WT (wild-type) ([Raliou et al., 2011]). […] The cDNA coding region of rTAS1R3 was synthesized with optimized-codon usage for human expression (Genewiz) and was cloned and inserted into the mammalian pcDNA4/myc-HisA (Invitrogen) expression vector between the EcoRI and NotI restriction sites, resulting in the plasmid pcDNA4-rTAS1R3. […] The sequence integrity of all the plasmid constructs was verified via automated DNA sequencing (Genewiz).
The hTAS1R1 mutants were co-expressed with the rTAS1R3 subunit in HEK293 cells. […] As a control, the functionality of the mutated receptors was checked after stimulation with S807 (Fig. S8), which interacts with TAS1R1-TMD ([Zhang et al., 2008]).

Compound | EC50 [mM] | Max ∆F/F0 (A302W, GSH) | R1 = mutant EC50/WT EC50 (A302W, GSH) | response to the agonist alone, vs WT (A302W)
N[C@@H](CCC(=O)N[C@@H](CS)C(=O)NCC(=O)O)C(=O)O [GSH, γ-L-glutamyl-L-cysteinyl-glycine] | 5.32 ± 2.54 | 0.09 ± 0.01 | 2.1 | 
N[C@@H](CCC(=O)O)C(=O)O [L-Glu, L-glutamic acid, reference compound] |  |  |  | completely suppressed
CCCC(CCC)NC(=O)c1ccc2c(c1)OCO2 [S807, N-(heptan-4-yl)benzo[d][1,3]dioxole-5-carboxamide, reference compound] |  |  |  | strongly affected

Reference: PMC12615753, “Glutathione as a taste modulator: molecular mechanisms of interaction with umami and sweet taste receptors” (Food Chemistry: Molecular Sciences, 2025)
